This series has as its target human NaV1.5 (Homo sapiens, UniProt Q14524). In words: IonWorks Quattro (IWQ) electrophysiology, human NaV1.5. Type of series: cell-based. As to conditions: read-out: Ala mutant IWQ IC50 NaV1.5. (In general: Patch clamp records ionic current or voltage across a cell membrane.)

Read-outs that look alike come from different tables or passages of the source. Bounds are passed on as bounds.

human NaV1.5, sequence (Q14524 whole entry): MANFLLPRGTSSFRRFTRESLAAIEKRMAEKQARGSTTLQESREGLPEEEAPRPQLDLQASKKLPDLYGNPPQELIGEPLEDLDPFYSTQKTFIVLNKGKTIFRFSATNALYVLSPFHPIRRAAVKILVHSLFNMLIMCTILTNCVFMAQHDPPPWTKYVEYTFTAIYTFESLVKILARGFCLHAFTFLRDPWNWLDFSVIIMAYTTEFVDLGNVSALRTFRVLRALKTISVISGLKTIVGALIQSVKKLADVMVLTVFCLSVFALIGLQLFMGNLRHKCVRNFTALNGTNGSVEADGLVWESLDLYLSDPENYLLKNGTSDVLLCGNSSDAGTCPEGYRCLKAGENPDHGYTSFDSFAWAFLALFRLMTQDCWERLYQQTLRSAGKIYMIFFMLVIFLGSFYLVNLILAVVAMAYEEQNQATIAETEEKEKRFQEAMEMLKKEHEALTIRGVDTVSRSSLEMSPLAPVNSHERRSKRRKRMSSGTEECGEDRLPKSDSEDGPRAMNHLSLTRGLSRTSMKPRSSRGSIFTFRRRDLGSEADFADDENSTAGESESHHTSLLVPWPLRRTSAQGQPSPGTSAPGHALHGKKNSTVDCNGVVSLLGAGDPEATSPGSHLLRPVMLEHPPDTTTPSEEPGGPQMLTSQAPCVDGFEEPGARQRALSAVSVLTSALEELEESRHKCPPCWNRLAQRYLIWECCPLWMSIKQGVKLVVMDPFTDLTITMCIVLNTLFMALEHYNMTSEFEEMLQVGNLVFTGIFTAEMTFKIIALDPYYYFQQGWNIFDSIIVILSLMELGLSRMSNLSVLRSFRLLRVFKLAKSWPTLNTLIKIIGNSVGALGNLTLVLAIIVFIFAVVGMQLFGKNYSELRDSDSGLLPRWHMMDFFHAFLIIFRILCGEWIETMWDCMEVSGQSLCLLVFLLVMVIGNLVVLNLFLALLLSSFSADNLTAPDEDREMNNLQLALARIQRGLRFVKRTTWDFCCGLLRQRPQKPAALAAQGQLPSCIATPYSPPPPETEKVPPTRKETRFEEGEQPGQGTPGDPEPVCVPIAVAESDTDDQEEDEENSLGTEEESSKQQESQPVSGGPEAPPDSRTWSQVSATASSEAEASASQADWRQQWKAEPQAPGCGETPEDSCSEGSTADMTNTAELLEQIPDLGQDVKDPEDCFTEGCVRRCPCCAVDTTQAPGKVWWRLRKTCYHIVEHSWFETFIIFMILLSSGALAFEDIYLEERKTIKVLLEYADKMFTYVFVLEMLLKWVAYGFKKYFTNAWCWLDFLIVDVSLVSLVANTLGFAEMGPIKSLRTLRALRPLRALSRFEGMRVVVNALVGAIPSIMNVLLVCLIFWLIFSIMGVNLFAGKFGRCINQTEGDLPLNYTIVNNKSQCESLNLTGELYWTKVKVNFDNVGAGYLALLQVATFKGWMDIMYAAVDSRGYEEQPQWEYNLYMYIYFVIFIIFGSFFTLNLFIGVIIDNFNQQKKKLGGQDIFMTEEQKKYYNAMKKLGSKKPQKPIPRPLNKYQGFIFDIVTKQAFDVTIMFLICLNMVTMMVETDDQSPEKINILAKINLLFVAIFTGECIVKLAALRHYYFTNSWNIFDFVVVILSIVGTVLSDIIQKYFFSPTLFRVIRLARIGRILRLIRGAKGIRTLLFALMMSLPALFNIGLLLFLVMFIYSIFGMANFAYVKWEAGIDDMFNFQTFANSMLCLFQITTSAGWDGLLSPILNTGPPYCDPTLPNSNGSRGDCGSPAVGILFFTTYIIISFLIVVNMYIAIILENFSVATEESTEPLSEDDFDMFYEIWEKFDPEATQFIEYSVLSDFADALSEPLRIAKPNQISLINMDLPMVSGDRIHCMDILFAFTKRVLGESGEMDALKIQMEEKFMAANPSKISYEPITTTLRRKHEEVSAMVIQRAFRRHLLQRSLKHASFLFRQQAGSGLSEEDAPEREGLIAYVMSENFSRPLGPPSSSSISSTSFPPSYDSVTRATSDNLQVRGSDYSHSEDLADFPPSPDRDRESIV

As to `CC[C@H](C)[C@H](NC(=O)[C@H](C)NC(=O)[C@H](CCCCN)NC(=O)[C@H](CCCNC(=N)N)NC(=O)[C@@H]1CSSC[C@@H]2NC(=O)[C@H](C)NC(=O)[C@H](CCCNC(=N)N)NC(=O)[C@H](CCCCN)NC(=O)[C@H](CO)NC(=O)[C@H](CC(=O)O)NC(=O)[C@@H]3CSSC[C@H](NC(=O)[C@H](CCCNC(=N)N)NC(=O)[C@H](CC(C)C)NC(=O)CNC(=O)[C@H](CCC(=O)O)NC(=O)[C@H](CSSC[C@H](NC(=O)[C@@H](N)Cc4ccc(O)cc4)C(=O)N[C@@H](CCC(N)=O)C(=O)N[C@@H](CCCCN)C(=O)N[C@@H](Cc4c[nH]c5ccccc45)C(=O)N[C@@H](CCSC)C(=O)N[C@@H](Cc4c[nH]c5ccccc45)C(=O)N[C@@H]([C@@H](C)O)C(=O)N3)NC2=O)C(=O)N[C@@H](CCCCN)C(=O)N[C@@H](CC(C)C)C(=O)N[C@@H](Cc2c[nH]c3ccccc23)C(=O)N1)C(N)=O` [I28 Ala mutant], the IC50 (in general, the midpoint of a concentration-inhibition curve) (human) is above 5 µM. Turning to `CC[C@H](C)[C@H](NC(=O)[C@@H](NC(=O)[C@H](CCCCN)NC(=O)[C@H](CCCNC(=N)N)NC(=O)[C@@H]1CSSC[C@@H]2NC(=O)[C@H](C)NC(=O)[C@H](CCCNC(=N)N)NC(=O)[C@H](CCCCN)NC(=O)[C@H](CO)NC(=O)[C@H](CC(=O)O)NC(=O)[C@@H]3CSSC[C@H](NC(=O)[C@H](CCCNC(=N)N)NC(=O)[C@H](CC(C)C)NC(=O)CNC(=O)[C@H](CCC(=O)O)NC(=O)[C@H](CSSC[C@H](NC(=O)[C@H](C)N)C(=O)N[C@@H](CCC(N)=O)C(=O)N[C@@H](CCCCN)C(=O)N[C@@H](Cc4c[nH]c5ccccc45)C(=O)N[C@@H](CCSC)C(=O)N[C@@H](Cc4c[nH]c5ccccc45)C(=O)N[C@@H]([C@@H](C)O)C(=O)N3)NC2=O)C(=O)N[C@@H](CCCCN)C(=O)N[C@@H](CC(C)C)C(=O)N[C@@H](Cc2c[nH]c3ccccc23)C(=O)N1)[C@@H](C)CC)C(N)=O` [Y1 Ala mutant], under “IWQ platform, single-residue Ala scan of JzTx-V”, the IC50 was 3.07 µM. As for `CC[C@H](C)[C@H](NC(=O)[C@@H](NC(=O)[C@H](CCCCN)NC(=O)[C@H](CCCNC(=N)N)NC(=O)[C@@H]1CSSC[C@@H]2NC(=O)[C@H](C)NC(=O)[C@H](CCCNC(=N)N)NC(=O)[C@H](CCCCN)NC(=O)[C@H](CO)NC(=O)[C@H](CC(=O)O)NC(=O)[C@@H]3CSSC[C@H](NC(=O)[C@H](CCCNC(=N)N)NC(=O)[C@H](CC(C)C)NC(=O)CNC(=O)[C@H](CCC(=O)O)NC(=O)[C@H](CSSC[C@H](NC(=O)[C@@H](N)Cc4ccc(O)cc4)C(=O)N[C@@H](CCC(N)=O)C(=O)N[C@@H](CCCCN)C(=O)N[C@@H](Cc4c[nH]c5ccccc45)C(=O)N[C@@H](CCSC)C(=O)N[C@@H](Cc4c[nH]c5ccccc45)C(=O)N[C@@H]([C@@H](C)O)C(=O)N3)NC2=O)C(=O)N[C@@H](C)C(=O)N[C@@H](CC(C)C)C(=O)N[C@@H](Cc2c[nH]c3ccccc23)C(=O)N1)[C@@H](C)CC)C(N)=O` [K22 Ala mutant], the concentration for half-maximal inhibition (IC50) (human) was above 5 µM. Still for that read-out and setting: as for `CC[C@H](C)[C@H](NC(=O)[C@@H](NC(=O)[C@H](CCCCN)NC(=O)[C@H](CCCNC(=N)N)NC(=O)[C@@H]1CSSC[C@@H]2NC(=O)[C@H](C)NC(=O)[C@H](CCCNC(=N)N)NC(=O)[C@H](CCCCN)NC(=O)[C@H](CO)NC(=O)[C@H](CC(=O)O)NC(=O)[C@@H]3CSSC[C@H](NC(=O)[C@H](CCCNC(=N)N)NC(=O)[C@H](CC(C)C)NC(=O)CNC(=O)[C@H](CCC(=O)O)NC(=O)[C@H](CSSC[C@H](NC(=O)[C@@H](N)Cc4ccc(O)cc4)C(=O)N[C@@H](CCC(N)=O)C(=O)N[C@@H](CCCCN)C(=O)N[C@@H](Cc4c[nH]c5ccccc45)C(=O)N[C@@H](CCSC)C(=O)N[C@@H](C)C(=O)N[C@@H]([C@@H](C)O)C(=O)N3)NC2=O)C(=O)N[C@@H](CCCCN)C(=O)N[C@@H](CC(C)C)C(=O)N[C@@H](Cc2c[nH]c3ccccc23)C(=O)N1)[C@@H](C)CC)C(N)=O` [W7 Ala mutant], the figure is above 5 µM.

For the origin of these results see paper PMC5933747 (PLoS ONE, 2018).
